Here are results for 30 molecules from patent publication US11459329B2, “Imidazopyridazine and imidazopyridine compounds and uses thereof” (Incyte Corporation, priority 2018, dated 2022).

Each structure is given as a SMILES string.

As a reminder, the IC50 is the concentration at which inhibition is half-maximal.

The target in the first assay is ALK2 (aa 147-end) (Homo sapiens (Human), UniProt Q04771). Kind of assay: ALK2 HTRF Assay. The assay is classed as biochemical.
Sequence of ALK2 (aa 147-end) (Q04771 147-509): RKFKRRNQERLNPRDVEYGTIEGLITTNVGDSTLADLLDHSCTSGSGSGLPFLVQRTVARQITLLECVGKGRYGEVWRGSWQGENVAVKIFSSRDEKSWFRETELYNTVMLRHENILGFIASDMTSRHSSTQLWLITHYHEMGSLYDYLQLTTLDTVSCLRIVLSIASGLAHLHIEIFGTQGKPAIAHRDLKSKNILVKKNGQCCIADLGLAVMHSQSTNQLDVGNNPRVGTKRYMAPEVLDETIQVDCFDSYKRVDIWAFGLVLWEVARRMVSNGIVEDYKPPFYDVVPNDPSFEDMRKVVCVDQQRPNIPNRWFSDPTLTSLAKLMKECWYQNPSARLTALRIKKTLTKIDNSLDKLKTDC
Details: not given
Here is the method: The enzymatic assays were conducted in white 384-well polystyrene plates in a final volume of 8 μL. The inhibitors were serially diluted in DMSO and added to the plate wells prior to addition of the other reaction components. The assays were carried out at 25° C. in the assay buffer (50 mM HEPES, pH 7.0, 10% Glycerol, 0.01% Brij50, 10 mM MgCl2, 1 mM EGTA, 5 mM DTT, and 0.01% BSA), containing 50 nM LANCE Ultra ULight™-DNA Topoisomerase 2-alpha peptide (Perkin Elmer TRF0130), and 3 μM ATP. The final concentration of DMSO in the assay was 1% and the enzyme concentration was 0.5 nM for ALK2. […] […] IC50 determination was performed by fitting percent control activity versus the log of the inhibitor concentration using the IDBS XLFit and GraphPad Prism 5.0 software.
A general note: Time-resolved FRET reads energy transfer from a long-lived donor to a nearby acceptor.
The molecule `Cc1nn2c(-c3ccnc4cc(N5CCOCC5)ccc34)cnc2cc1-c1ccc(N2CCNCC2)cc1` [Example 20, 4-(4-(6-methyl-7-(4-(piperazin-1-yl)phenyl)imidazo[1,2-b]pyridazin-3-yl)quinolin-7-yl)morpholine] displayed an IC50 of 1 to 5 nM.
On the same count and under the same terms, the figure for `Cc1nn2c(-c3ccnc4nc(-c5cnn(C)c5)ccc34)cnc2cc1-c1cnn(C(C)C)c1` [Example 51, 5-(7-(1-Isopropyl-1H-pyrazol-4-yl)-6-methylimidazo[1,2-b]pyridazin-3-yl)-2-(1-methyl-1H-pyrazol-4-yl)-1,8-naphthyridine] is 1 to 5 nM.

Staying with this assay, now noted: 3 μM ATP, 0.5 nM ALK2, 2 hr, 25° C.; read-out: ALK2 IC50.
For `Cc1nn2c(-c3ccnc4nc(-c5cnccn5)ccc34)cnc2cc1-c1cnn(C(C)C)c1` [Example 43, 5-(7-(1-Isopropyl-1H-pyrazol-4-yl)-6-methylimidazo[1,2-b]pyridazin-3-yl)-2-(pyrazin-2-yl)-1,8-naphthyridine], the half-maximal inhibitory concentration (IC50) lay within 1 to 5 nM.
As to `Cc1nn2c(-c3ccnc4nc(-c5ccn(C)n5)ccc34)cnc2cc1-c1ccc(C(=O)N(C)C)cc1` [Example 47, N,N-dimethyl-4-(6-methyl-3-(7-(1-methyl-1H-pyrazol-3-yl)-1,8-naphthyridin-4-yl)imidazo[1,2-b]pyridazin-7-yl)benzamide], the half-inhibitory concentration (IC50) was in the range of 1 to 5 nM.
The same measure, in the same setting: as for `Cc1cn2c(-c3ccnc4ccccc34)cnc2cc1-c1cnn(C2CCNCC2)c1` [Example 35, 4-(6-methyl-7-(1-(piperidin-4-yl)-1H-pyrazol-4-yl)imidazo[1,2-a]pyridin-3-yl)quinoline], the figure is 1 to 5 nM; as for `Cc1cnn(-c2ccc3c(-c4cnc5cc(-c6cnn(C7CCOCC7)c6)c(C)nn45)ccnc3n2)n1` [Example 62, 2-(4-Methyl-2H-1,2,3-triazol-2-yl)-5-(6-methyl-7-(1-(tetrahydro-2H-pyran-4-yl)-1H-pyrazol-4-yl)imidazo[1,2-b]pyridazin-3-yl)-1,8-naphthyridine], less than 1 nM; as for `Cc1nn2c(-c3ccnc4cc(CN5CCOCC5)ccc34)cnc2cc1-c1ccc(N2CCNCC2)cc1` [Example 24, 4-((4-(6-methyl-7-(4-(piperazin-1-yl)phenyl)imidazo[1,2-b]pyridazin-3-yl)quinolin-7-yl)methyl)morpholine], 5 to 100 nM.
Still for that read-out and setting: the figure for `Cc1nn2c(-c3ccnc4cc(-c5ccnc(CO)c5)ccc34)cnc2cc1-c1ccc(N2CCNCC2)cc1` [Example 19, (4-(4-(6-methyl-7-(4-(piperazin-1-yl)phenyl)imidazo[1,2-b]pyridazin-3-yl)quinolin-7-yl)pyridin-2-yl)methanol] is 1 to 5 nM; for `CCn1cnc(-c2ccc3c(-c4cnc5cc(-c6ccc(CN7CCO[C@@H](C)C7)cc6)c(C)nn45)ccnc3n2)c1` [Example 58, (S)-4-(4-(3-(7-(1-ethyl-1H-imidazol-4-yl)-1,8-naphthyridin-4-yl)-6-methylimidazo[1,2-b]pyridazin-7-yl)benzyl)-2-methylmorpholine] it is less than 1 nM.
On the same count and under the same terms, the figure for `Cc1nn2c(-c3ccnc4c3CCN4C(=O)c3ccncc3)cnc2cc1-c1cnn(C2CCOCC2)c1` [Example 32, (4-(6-methyl-7-(1-(tetrahydro-2H-pyran-4-yl)-1H-pyrazol-4-yl)imidazo[1,2-b]pyridazin-3-yl)-2,3-dihydro-1H-pyrrolo[2,3-b]pyridin-1-yl)(pyridin-4-yl)methanone] is 5 to 100 nM.
In the case of `Cc1nn2c(-c3ccnc4c3OCCO4)cnc2cc1-c1ccc(N2CCNCC2)cc1` [Example 29, 8-(6-methyl-7-(4-(piperazin-1-yl)phenyl)imidazo[1,2-b]pyridazin-3-yl)-2,3-dihydro-[1,4]dioxino[2,3-b]pyridine], the half-inhibitory concentration (IC50) is less than 1 nM.
On the same count and under the same terms, as for `Cc1cnn(-c2ccc3c(-c4cnc5cc(-c6ccc(CN7CCC(O)CC7)cc6)c(C)nn45)ccnc3n2)n1` [Example 67, 1-(4-(6-methyl-3-(7-(4-methyl-2H-1,2,3-triazol-2-yl)-1,8-naphthyridin-4-yl)imidazo[1,2-b]pyridazin-7-yl)benzyl)piperidin-4-ol], the figure is less than 1 nM; as for `Cc1cnn(-c2ccc3c(-c4cnc5cc(-c6cnn(C(C)C)c6)c(C)nn45)ccnc3n2)n1` [Example 61, 5-(7-(1-Isopropyl-1H-pyrazol-4-yl)-6-methylimidazo[1,2-b]pyridazin-3-yl)-2-(4-methyl-2H-1,2,3-triazol-2-yl)-1,8-naphthyridine], 1 to 5 nM; as for `Cc1nn2c(-c3ccnc4cc(-c5ccncc5)ccc34)cnc2cc1-c1cccc(N2CCN(C)CC2)c1` [Example 13, 4-(6-Methyl-7-(3-(4-methylpiperazin-1-yl)phenyl)imidazo[1,2-b]pyridazin-3-yl)-7-(pyridin-4-yl)quinolone], 5 to 100 nM.
Still for that read-out and setting: as for `Cc1nn2c(-c3ccnc4c(C(=O)NCCO)cccc34)cnc2cc1-c1ccc(N2CCNCC2)cc1` [Example 31, N-(2-hydroxyethyl)-4-(6-methyl-7-(4-(piperazin-1-yl)phenyl)imidazo[1,2-b]pyridazin-3-yl)quinoline-8-carboxamide], the figure is greater than 100 nM.
Same read-out and setting: the figure for `Cc1cnn(-c2ccc3c(-c4cnc5cc(-c6ccc(CN7CCCC7)cc6)c(C)nn45)ccnc3n2)n1` [Example 60, 2-(4-Methyl-2H-1,2,3-triazol-2-yl)-5-(6-methyl-7-(4-(pyrrolidin-1-ylmethyl)phenyl)imidazo[1,2-b]pyridazin-3-yl)-1,8-naphthyridine] is 1 to 5 nM; for `Cc1nn2c(-c3ccnc4cc(N5CC6(CCOC6)C5)ccc34)cnc2cc1-c1ccc(N2CCNCC2)cc1` [Example 21, 2-(4-(6-methyl-7-(4-(piperazin-1-yl)phenyl)imidazo[1,2-b]pyridazin-3-yl)quinolin-7-yl)-6-oxa-2-azaspiro[3.4]octane] it is 5 to 100 nM.
For `CCn1cnc(-c2ccc3c(-c4cnc5cc(-c6ccc(CN7CCCC7)cc6)c(C)nn45)ccnc3n2)c1` [Example 52, 2-(1-Ethyl-1H-imidazol-4-yl)-5-(6-methyl-7-(4-(pyrrolidin-1-ylmethyl)phenyl)imidazo[1,2-b]pyridazin-3-yl)-1,8-naphthyridine], the IC50 was less than 1 nM.
As to `Cc1nn2c(-c3ccnc4cc(CO)ccc34)cnc2cc1-c1ccc(N2CCNCC2)cc1` [Example 26, (4-(6-methyl-7-(4-(piperazin-1-yl)phenyl)imidazo[1,2-b]pyridazin-3-yl)quinolin-7-yl)methanol], the half-inhibitory concentration (IC50) fell in the range of 5 to 100 nM.
The same measure, in the same setting: the figure for `Cc1cn2c(-c3ccc(C(N)=O)c(F)c3)cnc2cc1-c1cnn(C2CCNCC2)c1` [Example 36, 2-fluoro-4-(6-methyl-7-(1-(piperidin-4-yl)-1H-pyrazol-4-yl)imidazo[1,2-a]pyridin-3-yl)benzamide] is less than 1 nM; for `Cc1nn2c(-c3ccnc4cc(C(=O)N5CCN(C)CC5)ccc34)cnc2cc1-c1ccc(N2CCNCC2)cc1` [Example 17, (4-(6-methyl-7-(4-(piperazin-1-yl)phenyl)imidazo[1,2-b]pyridazin-3-yl)quinolin-7-yl)(4-methylpiperazin-1-yl)methanone] it is greater than 100 nM; for `C[C@]1(O)CC[C@H](NC(=O)c2nn3c(-c4ccnc5ccccc45)cnc3cc2-c2ccc(N3CCNCC3)cc2)CC1` [Example 3, N-((1R,4R)-4-Hydroxy-4-methylcyclohexyl)-7-(4-(piperazin-1-yl)phenyl)-3-(quinolin-4-yl)imidazo[1,2-b]pyridazine-6-carboxamide] it is 5 to 100 nM.
Same read-out and setting: the figure for `NC(=O)c1nn2c(-c3ccnc4ccccc34)cnc2cc1-c1ccc(N2CCNCC2)cc1` [Example 5, 7-(4-(Piperazin-1-yl)phenyl)-3-(quinolin-4-yl)imidazo[1,2-b]pyridazine-6-carboxamide] is 5 to 100 nM.
For `Cc1nn2c(-c3ccnc4cc(-c5ccncc5)ccc34)cnc2cc1-c1ccc(C(=O)N2CCN(C)CC2)cc1` [Example 14, (4-(6-Methyl-3-(7-(pyridin-4-yl)quinolin-4-yl)imidazo[1,2-b]pyridazin-7-yl)phenyl)(4-methylpiperazin-1-yl)methanone], the half-maximal inhibitory concentration (IC50) fell in the range of 1 to 5 nM.
The same measure, in the same setting: as for `Cc1nn2c(-c3ccnc4nc(-c5cnccn5)ccc34)cnc2cc1-c1cnn(C2CCOCC2)c1` [Example 44, 5-(6-Methyl-7-(1-(tetrahydro-2H-pyran-4-yl)-1H-pyrazol-4-yl)imidazo[1,2-b]pyridazin-3-yl)-2-(pyrazin-2-yl)-1,8-naphthyridine], the figure is 1 to 5 nM; as for `CCn1cnc(-c2ccc3c(-c4cnc5cc(-c6cnn(C(C)C)c6)c(C)nn45)ccnc3n2)c1` [Example 55, 2-(1-Ethyl-1H-imidazol-4-yl)-5-(7-(1-isopropyl-1H-pyrazol-4-yl)-6-methylimidazo[1,2-b]pyridazin-3-yl)-1,8-naphthyridine], 1 to 5 nM.
The same measure, in the same setting: as for `OCc1nn2c(-c3ccnc4ccccc34)cnc2cc1-c1ccc(N2CCNCC2)cc1` [Example 7, (7-(4-(Piperazin-1-yl)phenyl)-3-(quinolin-4-yl)imidazo[1,2-b]pyridazin-6-yl)methanol], the figure is less than 1 nM.
On the same count and under the same terms, as for `Cc1nn2c(-c3ccnc4ccccc34)cnc2cc1-c1ccc(N2CCNCC2)cc1` [Example 1, 4-(6-Methyl-7-(4-(piperazin-1-yl)phenyl)imidazo[1,2-b]pyridazin-3-yl)quinoline], the figure is less than 1 nM; as for `Cc1nn2c(-c3ccnc4ncccc34)cnc2cc1-c1ccc(N2CCNCC2)cc1` [Example 27, 4-(6-methyl-7-(4-(piperazin-1-yl)phenyl)imidazo[1,2-b]pyridazin-3-yl)-1,8-naphthyridine], less than 1 nM.
In the case of `Cc1nn2c(-c3ccnc4cc(-c5ccncc5)ccc34)cnc2cc1-c1ccc(CN2CCC[C@H]2C)c(F)c1` [Example 15, (R)-4-(7-(3-fluoro-4-((2-methylpyrrolidin-1-yl)methyl)phenyl)-6-methylimidazo[1,2-b]pyridazin-3-yl)-7-(pyridin-4-yl)quinoline], the IC50 fell in the range of 1 to 5 nM.
